Assay results reported in US20260285853A1, “COMPOUNDS AND METHODS FOR MODULATING SPLICING” (REMIX THERAPEUTICS INC., priority 2023, published 2026).

What was measured:
Format in all cases: cell-based
SMN2 mRNA = assay: Gene panel canonical junction qPCR assay, decrease in CJ mRNA, Table 3; conditions: decrease in canonical junction (CJ) mRNA, gene panel qPCR, Table 3
How it was run: (§1)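 IC50 is the concentration giving 50% response in decrease of the canonical junction transcript, fitted with a 4-parameter logistic equation. Transcripts were quantified by RT-qPCR in A673 or K562 cells after 24 h exposure to compounds dosed up to 10 uM in 3-fold steps.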

MYB mRNA [1] = assay: as above; conditions: decrease in canonical junction (CJ) mRNA, gene panel qPCR, Table 3
How it was run: as §1

HTT mRNA [2] = assay: as above; conditions: decrease in canonical junction (CJ) mRNA, gene panel qPCR, Table 3
How it was run: as §1

[3] = system: SH-SY5Y (human neuroblastoma) cells; assay: Cell viability, Cell Titer Glo 2.0 assay; conditions: read-out: Viability SHSY5Y.3 GI50
How it was run: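 Steps: serial DMSO dilution of compound, 1:100 dilution into medium, addition to cells (0.1% DMSO final). Incubate 72 h at 37 °C, 5% CO2. Assay with CellTiter-Glo 2.0 reagent.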

MYB mRNA [4] = assay: Splicing RT-qPCR assay (THP), Table 2A; conditions: Table 2A (THP); for AC50: AJ mRNA increase, read-out: MYB AJ (increase in alternative junction mRNA, AC50); for IC50: CJ mRNA decrease, read-out: MYB CJ (decrease in canonical junction mRNA, IC50)
MYB mRNA [5] = assay: Splicing RT-qPCR assay, canonical (CJ) and alternative (AJ) junction mRNA, K562 cells; conditions: Homo sapiens, K562.3 cells, 24 hours; for AC50: read-out: MYB AJ (AC50, increase in AJ mRNA); for IC50: read-out: MYB CJ (IC50, decrease in CJ mRNA)
Protocol: (§2) Compounds described herein were used to modulate RNA transcript abundance in cells. The expression of a target mRNA was measured by detecting the formation of an exon-exon junction in the canonical transcript (CJ). A compound mediated exon-inclusion event was detected by observing an increase in formation of a new junction with an alternative exon (AJ). Real-time qPCR assays were used to detect these splicing switches and interrogate the potency of various compounds towards different target genes. A high-throughput real time quantitative PCR (RT-qPCR) assay was developed to measure these two isoforms of the mRNA (CJ and AJ) for exemplary genes, such as HTT, SMN2, and MYB, together with a control housekeeping gene, GAPDH or GUSB or PPIA, used for normalization. Briefly, the A673 or K562 cell line was treated with various compounds described herein (e.g., compounds of Formula (I)). After treatment, the levels of the HTT, MYB, or SMN2 mRNA targets were determined from each sample of cell lysate by cDNA synthesis followed by qPCR.
(§3) • Cells-to-CT 1-step kit: ThermoFisher A25602, Cells-to-CT lysis reagent: ThermoFisher 4391851C, TaqMan™ Fast Virus 1-Step Master Mix: ThermoFisher 4444436 • GAPDH: VIC-PL, ThermoFisher 4326317E (Assay: Hs99999905_m1)—used for K562/suspension cell lines • GUSB: VIC-PL, ThermoFisher 4326320E (Assay: Hs99999908_m1)—used for K562/suspension cell lines • PPIA: VIC-PL, ThermoFisher 4326316E (Assay: Hs99999904_m1)—used for A673/adherent cell lines
(§4) The K562 cell line was cultured in IMDM with 10% FBS. For K562, cells were diluted with full growth media and plated in either a 96-well plate (50,000 cells in 50 uL media per well) or a 384-well plate (8,000-40,000 cells in 45 uL media per well). An 11-point 3-fold serial dilution of the compounds were made in DMSO then diluted in media in an intermediate plate. Compound was transferred from the intermediate plate to the cell plate with the top dose at a final concentration of 10 uM in the well. Final DMSO concentration was kept at or below 0.25%. Final volume was 100 uL for 96-well plate and 50 uL for 384-well plate. The cell plate was then placed in an incubator at 37° C. with 5% CO2 for 24 hours.
(§5) The cells were then gently washed with 50 uL-100 uL cold PBS before proceeding to addition of lysis buffer. 30 uL-50 uL of room temperature lysis buffer with DNAse I (and optionally RNAsin) was added to each well. Cells were shaken/mixed thoroughly at room temperature for 5-10 minutes for lysis to take place and then 3 uL-5 uL of room temperature stop solution was added and wells were shaken/mixed again. After 2-5 minutes, the cell lysate plate was transferred to ice for RT-qPCR reaction setup. The lysates could also be frozen at −80° C. for later use.
(§6) In some cases, a direct lysis buffer was used. An appropriate volume of 3× lysis buffer (10 mM Tris, 150 mM NaCl, 1.5%-2.5% Igepal and 0.1-1 U/uL RNAsin, pH 7.4) was directly added to either K562 or A673 cells in media and mixed by pipetting 3 times. The plates were then incubated at room temperature with shaking/rocking for 20-50 minutes to allow for lysis to take place. After this time, the cell lysate plate was transferred to ice to set up for the RT-qPCR reactions. The lysates could also be frozen at −80° C. for later use.
(§7) To set up 10 uL RT-qPCR reactions, cell lysates were transferred to 384-well qPCR plates containing the master mix according to the table below. The plates were sealed, gently vortexed, and spun down before the run. The volumes were adjusted accordingly in some instances where the reaction was carried in 20 uL. The table below summarizes the components of the RT-qPCR reactions:
(§8) The RT-qPCR reaction was performed using a QuantStudio (ThermoFisher) under the following fast cycling conditions. All samples and standards were analyzed at least in duplicate. In some instances, bulk room temperature (RT) step of 5-10 minutes was completed for all plates before proceeding with qPCR. […]

HTT mRNA [6] = assay: as above; conditions: Homo sapiens, K562.3 cells, 24 hours; for AC50: read-out: HTT AJ (AC50, increase in AJ mRNA); for IC50: read-out: HTT CJ (IC50, decrease in CJ mRNA)
Protocol: as §2, §3, §4, §5, §6, §7, §8

SMILES	IC50 (SMN2 mRNA)	IC50 (MYB mRNA [1])	IC50 (HTT mRNA [2])	GI50 [3]	IC50 (MYB mRNA [4])	IC50 (MYB mRNA [5])	IC50 (HTT mRNA [6])	AC50 (MYB mRNA [4])	AC50 (MYB mRNA [5])	AC50 (HTT mRNA [6])
Cc1cn2cc(NC(=O)c3ccc(N4CCNCC4)c4cc[nH]c34)cc(F)c2n1 [Compound 213, N-(8-fluoro-2-methyl-imidazo[1,2-a]-pyridin-6-yl)-4-piperazin-1-yl-1H-indole-7-carboxamide]	> 10 µM	> 10 µM	1 to 10 µM	1 to 10 µM	1 to 10 µM	> 10 µM	1 to 10 µM	> 10 µM	> 10 µM	> 10 µM
CN[C@H]1CCN(c2c(OC)cc(C(=O)Nc3cc(F)c4nc(C)cn4c3)c3nn(C)cc23)C1 [Compound 137, N-(8-fluoro-2-methyl-imidazo[1,2-a]pyridin-6-yl)-5-methoxy-2-methyl-4-[(3S)-3-(methylamino)pyrrolidin-1-yl]indazole-7-carboxamide]	0.1 to 1 µM	> 10 µM	> 10 µM	1 to 10 µM	> 10 µM	> 10 µM	> 10 µM	> 10 µM	> 10 µM	> 10 µM
COc1c(NC(=O)c2ccc(N3CCNCC3)c3cc[nH]c23)cn2cc(C)nc2c1F [Compound 212, N-(8-fluoro-7-methoxy-2-methyl-imidazo-[1,2-a]pyridin-6-yl)-4-piperazin-1-yl-1H-indole-7-carboxamide]	1 to 10 µM	1 to 10 µM	> 10 µM	1 to 10 µM	> 10 µM	1 to 10 µM	> 10 µM	> 10 µM	> 10 µM	> 10 µM
Cc1cn2cc(NC(=O)c3c(F)cc(N4CCNCC4)c4c3CN(C)C4)cc(F)c2n1 [Compound 230, 5-fluoro-N-(8-fluoro-2-methyl-imidazo[1,2-a]pyridin-6-yl)-2-methyl-7-piperazin-1-yl-isoindoline-4-carboxamide]	1 to 10 µM	> 10 µM	> 10 µM	> 10 µM	–	> 10 µM	> 10 µM	–	> 10 µM	> 10 µM
CN[C@@H]1CN(c2ccc(C(=O)Nc3cc(F)c4nc(C)cn4c3)c3nn(C)cc23)C[C@@H]1C [Compound 108, N-(8-fluoro-2-methyl-imidazo[1,2-a]pyridin-6-yl)-2-methyl-4-[(3S,4S)-3-methyl-4-(methylamino)-pyrrolidin-1-yl]indazole-7-carboxamide]	< 0.1 µM	0.1 to 1 µM	1 to 10 µM	1 to 10 µM	–	0.1 to 1 µM	1 to 10 µM	–	0.1 to 1 µM	> 10 µM
CN[C@@H]1CN(c2ccc(C(=O)Nc3cc(F)c4nc(C)cn4c3)c3nn(C)cc23)C[C@H]1C [Compound 107, N-(8-fluoro-2-methyl-imidazo[1,2-a]pyridin-6-yl)-2-methyl-4-[(3R,4S)-3-methyl-4-(methylamino)pyrrolidin-1-yl]indazole-7-carboxamide]	< 0.1 µM	0.1 to 1 µM	1 to 10 µM	1 to 10 µM	–	0.1 to 1 µM	1 to 10 µM	–	0.1 to 1 µM	> 10 µM
Cc1cn2cc(NC(=O)c3ccc(N4CC[C@@H](NCC56CC(CO5)C6)C4)c4cn(C)nc34)cc(F)c2n1 [Compound 124, N-(8-fluoro-2-methyl-imidazo[1,2-a]pyridin-6-yl)-2-methyl-4-[(3R)-3-(2-oxabicyclo[2.1.1]hexan-1-ylmethylamino)pyrrolidin-1-yl]indazole-7-carboxamide]	< 0.1 µM	1 to 10 µM	> 10 µM	1 to 10 µM	–	1 to 10 µM	> 10 µM	–	0.1 to 1 µM	> 10 µM

Now from value to molecule, other results behind:

IC50 (SMN2 mRNA)	IC50 (MYB mRNA [1])	IC50 (HTT mRNA [2])	GI50 [3]	IC50 (MYB mRNA [4])	IC50 (MYB mRNA [5])	IC50 (HTT mRNA [6])	SMILES	AC50 (MYB mRNA [4])	AC50 (MYB mRNA [5])	AC50 (HTT mRNA [6])
< 0.1 µM	0.1 to 1 µM	1 to 10 µM	1 to 10 µM	0.1 to 1 µM	0.1 to 1 µM	1 to 10 µM	Cc1cn2cc(NC(=O)c3ccc(N4CC[C@H](NCC(C)(C)O)C4)c4cn(C)nc34)cc(F)c2n1 [Compound 132, N-(8-fluoro-2-methyl-imidazo[1,2-a]pyridin-6-yl)-4-[(3S)-3-[(2-hydroxy-2-methylpropyl)amino]-pyrrolidin-1-yl]-2-methyl-indazole-7-carboxamide]	0.1 to 1 µM	0.1 to 1 µM	> 10 µM
< 0.1 µM	0.1 to 1 µM	1 to 10 µM	0.1 to 1 µM	0.1 to 1 µM	0.1 to 1 µM	1 to 10 µM	CCNC1CCN(c2cc(F)c(C(=O)Nc3cc(F)c4nc(C)cn4c3)c3[nH]ncc23)CC1 [Compound 174, 4-[4-(ethylamino)-1-piperidyl]-6-fluoro-N-(8-fluoro-2-methyl-imidazo-[1,2-a]pyridin-6-yl)-1H-indazole-7-carboxamide]	< 0.1 µM	0.1 to 1 µM	1 to 10 µM
< 0.1 µM	0.1 to 1 µM	1 to 10 µM	0.1 to 1 µM	0.1 to 1 µM	0.1 to 1 µM	1 to 10 µM	CCNC12CC(C1)N(c1ccc(C(=O)Nc3cc(F)c4nc(C)cn4c3)c3nn(C)cc13)C2 [Compound 136, 4-[4-(ethylamino)-2-azabicyclo-[2.1.1]hexan-2-yl]N-(8-fluoro-2-methylimidazo[1,2-a]pyridin-6-yl)-2-methyl-indazole-7-carboxamide]	0.1 to 1 µM	0.1 to 1 µM	1 to 10 µM
< 0.1 µM	< 0.1 µM	1 to 10 µM	0.1 to 1 µM	–	< 0.1 µM	1 to 10 µM	CCNC1CCN(c2ccc(C(=O)Nc3cn4cc(C)nc4c(F)c3OC)c3[nH]ncc23)CC1 [Compound 170, 4-[4-(ethylamino)piperidin-1-yl]-N-(8-fluoro-7-methoxy-2-methylimidazo[1,2-a]pyridin-6-yl)-1H-indazole-7-carboxamide]	–	0.1 to 1 µM	1 to 10 µM
< 0.1 µM	0.1 to 1 µM	1 to 10 µM	1 to 10 µM	–	0.1 to 1 µM	1 to 10 µM	C#CCN[C@@H]1CCN(c2ccc(C(=O)Nc3cc(F)c4nc(C)cn4c3)c3nn(C)cc23)C1 [Compound 122]	–	0.1 to 1 µM	1 to 10 µM
